Consider 1 compound from publication PMC7080599 (European journal of nuclear medicine and molecular imaging, 2019).

For the assay, the target named is T1, lymphokine-activated killer T-cell-originated protein kinase (TOPK) (Homo sapiens, UniProt Q96KB5).
T1 sequence (Q96KB5 1-322): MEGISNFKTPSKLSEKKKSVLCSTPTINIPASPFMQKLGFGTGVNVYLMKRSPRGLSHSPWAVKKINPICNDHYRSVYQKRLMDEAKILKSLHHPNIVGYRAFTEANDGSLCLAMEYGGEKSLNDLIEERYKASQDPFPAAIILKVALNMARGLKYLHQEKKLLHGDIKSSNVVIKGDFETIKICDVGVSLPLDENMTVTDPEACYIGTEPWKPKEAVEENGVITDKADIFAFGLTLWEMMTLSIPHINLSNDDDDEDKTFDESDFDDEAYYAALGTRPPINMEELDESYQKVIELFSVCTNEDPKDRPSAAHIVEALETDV
The assay is described as follows: in vitro TOPK kinase assay. It counts as biochemical.

As a reminder, the EC50 is the midpoint of the concentration-response curve.

Turning to `Cc1cc(O)c(-c2ccc([C@@H](C)CNc3ccc([N+](=O)[O-])c4nonc34)cc2)c2c1[nH]c(=O)c1sccc12` [TOPKi-NBD, (R)-8-hydroxy-6-methyl-9-(4-(1-((7-nitrobenzo[c][1,2,5]oxadiazol-4-yl)amino)propan-2-yl)phenyl)thieno[2,3-c]quinolin-4(5H)-one], a half-maximal effect (EC50) was put at 0.49 ± 0.17 µM.
